The nature of experiment [1]: Proliferation assay of Table 2 (cell line not stated). The format is cell-based. To be noted: concentration that inhibits cell viability (or growth) by 50% relative to vehicle control; read-out: Prolif IC50. How it is done: The LANTHA SCREEN™ TR-FRET PPARδ Competitive Binding Assay was conducted for a variety of compounds according to the instructions provided by the manufacturer (Invitrogen). In addition, proliferation assays were conducted. In Table 2, “Prolif IC50” is the concentration that inhibits cell viability (or growth) by 50% relative to a vehicle control, and “TR-F binding IC50 (μM)” is the concentration that competes binding by a labeled pan-agonist to the ligand binding domain of PPAR delta, by 50%.

The test system of experiment [2] is A549 cultures. Briefly: Real time PCR mRNA analysis of CDK2, CDK4, cyclin D1 in A549. The format is cell-based, human. The settings on record: A549, 20 μM, 0.5% FBS, 24 and 48 h. How it is done: Referring now to FIG. 5D, to better define the level of regulation of SR13904 on cell cycle proteins, CDK2, CDK4, and cyclin D1 were selected for mRNA analysis using real time PCR. A549 cultures were treated with SR13904 (20 μM; 0.5% FBS) and sampled at 24- and 48-h time-points. […] For CDK2 the differences (SR13904-treated vs. vehicle control-treated) were significant (*p=0.01-0.05, **p=0.00-0.01). Computational analysis of the proximal human CDK2 promoter identified a number of putative consensus PPREs. None were found within the proximal promoter regions of the CDK4 and cyclin D1 genes. SR13904 may directly affect the transcriptional activity of CDK2 while exerting indirect effects on the expression of the CDK4 and cyclin D1 proteins, perhaps through control over PPARδ-dependent signaling pathways.
For orientation: In qPCR the cycle at which signal appears reflects the starting amount.

For experiment [3], the system named is MMP-9. Nature of the experiment: Gelatin zymogel analysis of MMP-9 activity in PC-3 cells. The format is cell-based, human. To be noted: PC-3, 16 h; VLDL 2 μg/ml + LPL 2 μg/ml and/or 10 μM SR13904. As for the experimental part:
Zymogel studies were performed to determine whether PPARδ could regulate MMP-9 expression/activity in prostate cancer cells. Over-expression of MMP-9 is directly linked to metastatic prostate cancer, at least in part through mitogen/extracellular-signal-regulated kinase kinase 5/extracellular signal-regulated kinase-5 (MEK5/ERK5). An increase in MMP-9 activity in VLDL-treated PC-3 cells was observed (see FIG. 7), and this activation was attenuated by co-incubation with SR 13904.
Referring to FIG. 7, PC-3 cultures were treated with ligands (2 μg/ml VLDL+2 μg/ml LPL and/or 10 μM SR13904) for 16 h prior to harvesting of cells (for cell counting) and collection and concentration of conditioned media. Loading was based on equal cell numbers, corresponding closely to equal loading volumes.

Experiment [4] has as its system A549 cells. Nature of the experiment: Western blotting of cell-cycle regulatory proteins in A549 cells. The format is cell-based, human. The settings on record: A549, 20 μM, 24 and 48 h, 0.5% FBS. How it is done:
Referring now to FIG. 5C, SR13904 treatment of A549 human NSCLC cell line modulates cell cycle protein expression patterns toward an inhibitory phenotype. Given the flow cytometry results described above, the effect of SR13904 on the expression of some key cell-cycle regulatory proteins involved in G1 and S phases was investigated. A549 cells were grown in phenol-red-free DMEM+0.5% charcoal-treated FBS and exposed to the ligand. […]

For experiment [5], the system named is PC-3 cells. Nature of the experiment: Alamar Blue proliferation assay, PC-3. The format is cell-based. The settings on record: Homo sapiens, 96 h; PC-3, 0-40 μM, 0.5% serum, 4 days; read-out: IC50 for growth inhibition. How it is done: The effect of SR13904 on the proliferation of these cell lines was determined by an Alamar Blue assay. Exponentially growing cells were treated with a range of SR13904 concentrations (0-40 μM; in 0.5% serum) over 4 days and proliferation curves were determined. The IC50 values for growth inhibition by SR13904 for each cell line were determined. […] In addition, colony formation assays with SR13904 were performed with both A549 and Huh7 cells.
Background: Resazurin is reduced to fluorescent resorufin, in cell work by metabolically active cells.

The target in experiment [6] is T1, LBD of PPARδ protein (Homo sapiens, UniProt Q03181).
T1 construct: co-transfection of a plasmid containing an LBD/Gal4 fusion construct; expressed in transfected cells; host or cells: U2-OS (human bone cancer line)
T1 sequence (Q03181 211-439 limits assumed): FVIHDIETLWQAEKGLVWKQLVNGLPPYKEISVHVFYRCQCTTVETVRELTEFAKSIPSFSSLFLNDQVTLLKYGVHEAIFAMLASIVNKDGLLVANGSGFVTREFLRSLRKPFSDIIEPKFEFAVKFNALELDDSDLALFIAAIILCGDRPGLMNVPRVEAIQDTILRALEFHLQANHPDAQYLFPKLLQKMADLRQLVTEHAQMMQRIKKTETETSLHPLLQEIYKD
Nature of the experiment: PPARδ ligand-binding domain (LBD)/Gal4 UAS-tk-luciferase reporter assay in U2-OS cells. The format is cell-based. As for the experimental part: General Testing Procedures. Each ligand was screened for PPARδ binding and transactivation activity through the use of two complementary reporter assays as described below. In both systems, transfection efficiency was standardized by co-transfection of a control Renilla luciferase. U2-OS (human bone cancer line) cells were used for both assays because this is the cell line of choice for screening PPAR ligands. At 18 h post-transfection, GW 501, with and without the ligands of the disclosure, was added to the cells and incubated for an additional 24 h. The cells were then harvested and luciferase activities profiled.
A PPARδ protein ligand-binding domain (LBD) assay. The LBD assay consists of cellular co-transfection of a plasmid containing an LBD/Gal4 fusion construct and a vector containing a UAS-tk-luciferase reporter construct under the transcriptional control of a Gal4 upstream activating sequence. This system was used to test for binding activities of candidate PPARδ ligands to the LBD of PPARδ protein.
Referring to FIG. 3, U2-OS cells were transiently transfected with appropriate expression and reporter vectors. Ligands were added to the cell cultures 24 h post-transfection and incubated for an additional 16 h. Lipoprotein lipase (LPL; 2 μg/ml) was added with VLDL (5 μg/ml) to release PPARδ-active triglycerides. FIG. 3A: PPARδ LBD/Gal4/UAS-tk-luc competition assays with VLDL SR13904 (0-10 μM). The reporter activation (fold increase over blank) is presented relative to GW501516 at 7 nM (fold increase over blank=100). FIG. 3B: PPRE reporter assays using 0, 1, and 10 μM SR13904+VLDL. All assays were repeated in triplicate.
(In general: Reporter assays use an easily measured gene product as a stand-in for the process of interest.)

The structures appear in SMILES notation.

Broadly, the IC50 is the midpoint of a concentration-inhibition curve.

As for `Cc1cc(SCc2sc(-c3cccc4ccccc34)nc2C)ccc1OCC(=O)O` [SR 13904], in experiment [1], the IC50 is 12 µM. Besides, in experiment [2], the “CDK4 or cyclin D1 mRNA levels” value is reported as “no effect” and the “steady state levels of CDK2 mRNA” value is recorded as “significantly reduced”. Also, the MMP-9 activity result in experiment [3] is “attenuated”. Also, in experiment [4], the “levels of cyclin E, p21, and p27” value is reported as “little or no effect”; the “steady state levels of CDK2, CDK4, cyclin D1, and cyclin A proteins” value was “decreased”. For the same compound, the IC50 in experiment [5] was over 30 µM. For the same compound, the “inhibition of binding of VLDL to PPARδ” value in experiment [6] (SR13904 0-10 μM with VLDL) is reported as “significantly inhibit”. Besides, the “concentrations at which ligand binds LBD of PPARδ, attenuating LBD binding of GW501” value in experiment [6] (competition with GW501 (7 nM), U2-OS cells) fell in the range of 1 to 10 µM. The “PPARδ ligand profile (agonist/antagonist)” value in experiment [6] (from GAL-4 binding and PPRE transactivation reporter screens) is given as “PPARδ antagonist”.

Values taken from patent publication US20090163481A1, “PPAR-DELTA LIGANDS AND METHODS OF THEIR USE” (priority 2007, published 2009).
